Results on 16 compounds are retold here after patent US5302621A, “Azasteroid compounds for the treatment of prostatic hypertrophy, their preparation and use” (Sankyo Company, Limited, priority 1990, dated 1994).

In test [1] the test system is testosterone 5α-reductase. The conditions noted are these: background, U.S. Pat. No. 4,179,453 and 4,760,071; cited from earlier work.
The subject of a further test is rat 5α-reductase. The test is described as follows: Assay of Rat 5α-reductase Inhibition. The format is biochemical, rat (Sprague-Dawley). The conditions noted are these: 10^-8 M test compound; rat prostate 5α-reductase, 1 μM [14C] testosterone, pH 6.5, 37° C., 15 to 30 minutes. As to the method:
The prostatic lobes of a mature male rat (body weight 350-450 g, Sprague-Dawley strain) were cut into small pieces with scissors. About three parts by weight of a buffer solution [20 mM potassium phosphate buffer solution (ph 7.4) containing 0.33M sucrose, 1 mM dithiothreitol, 50 μM nicotinamide adenine dinucleotide phosphate-reduced form (NADPH) and 0.001% PMSF (phenylmethyl sulfonyl fluoride)] were added to one part by weight of the tissue pieces, and the mixture was homogenized first by means of a Polytron (trade mark, KINEMATICA GmbH) homogenizer, and then by means of a Teflon (trade mark) glass homogenizer. The prostatic tissue suspension thus homogenized was then centrifuged (140000×g, 60 minutes) to separate the precipitate.
About three parts by weight of the buffer solution described above were added to one part of the precipitate to suspend it, and the suspension was centrifuged again (140000×g, 60 minutes) to wash it and separate a precipitate, which was regarded as a rat 5α-reductase preparation. Sufficient of the buffer solution described above was added to this precipitate for the protein content of the solution to become between 20 and 40 mg/ml. The solution was frozen and stored at -80° C. The protein content was determined by a Bio-Rad protein assay in which bovine γ-globulin (Cohn Fraction II, Sigma) was used as the protein standard.
5 μl of a dimethyl sulfoxide or ethanol solution in which a test compound to be tested was dissolved were added to 0.5 ml of a 40 mM potassium phosphate buffer solution (pH 6.5) containing rat 5α-reductase (protein content, 1 mg), 1 μM [^14 C] testosterone, 1 mM dithiothreitol and 500 μM NADPH (final concentration 10^-8 M of the test compound), and incubated for 15 to 30 minutes at 37° C. As a control, only the solvent was added to one sample. 2 ml of ethyl acetate containing 10 μg each of testosterone, 5α-dihydrotestosterone and androstenedione were then added to stop the reaction. The mixture was centrifuged (1400×g, 5 minutes). The ethyl acetate layer was separated and transferred to another test tube, where it was evaporated to dryness whilst spraying it with nitrogen gas. The steroids were dissolved in 40 μl of ethyl acetate. The solution was spotted on a thin layer chromatographic plate (LK5DF silica plate, Whatman), and developed with a mixture of ethyl acetate with cyclohexane (1:1 by volume) twice at room temperature. The steroid fraction was identified by color development by ultraviolet radiation or by heating with a […]/10% sulfuric acid solution. The radioactivity on the thin layer chromatographic plate was measured by means of a bio-image analyzer (Fuji Film Co. Ltd.). The enzyme activity was given by the amount [conversion rate (%)] of [^14 C] 5α-dihydro-testosterone which was converted from the [^14 C] testosterone initially added. The rat 5α-reductase inhibiting activity of a test sample was calculated from the following equation: [formula]

Take `CCN(CC)C(=O)C1CCC2C3CCC4NC(=O)C=CC4(C)C3CCC12C` (centres unmarked) [Compound A1]: the “5α-reductase inhibitory activity of prior-art compounds, in words” value in test [1] is given as “quite a potent activity”.
Regarding `CC(C)(C)NC(=O)C1CCC2C3CCC4NC(=O)C=CC4(C)C3CCC12C` (centres unmarked) [Compound A2, reference compound], the “5α-reductase inhibitory activity of prior-art compounds, in words” value in test [1] was “quite a potent activity”. Besides, the “Rat 5α-reductase inhibiting activity: Inhibiting activity (%)” value (shortened to “Rat 5α-reductase inhibiting activity … (%)”) in the test with rat 5α-reductase turned out to be 30.0%.
In the case of `C[C@]12CCC(=O)N[C@@H]1CC[C@@H]1[C@@H]2CC[C@]2(C)[C@@H](C(=O)NC(c3ccccc3)c3ccccc3)CC[C@@H]12` [Example No. 1, N-(Diphenylmethyl)-3-oxo-4-aza-5α-androstane-17β-carboxamide], the “Rat 5α-reductase inhibiting activity … (%)” value in the test on rat 5α-reductase was determined as 89.2%.
The same measure, in the same setting: in the case of `C[C@]12CCC(=O)N[C@@H]1CC[C@@H]1[C@@H]2CC[C@]2(C)[C@@H](C(=O)NC(Cc3ccccc3)c3ccccc3)CC[C@@H]12` (stereo partly drawn) [Example No. 3, N-(1,2-Diphenylethyl)-3-oxo-4-aza-5α-androstane-17β-carboxamide] it was 89.1%.
Take `C[C@]12CCC(=O)N[C@@H]1CC[C@@H]1[C@@H]2CC[C@]2(C)[C@@H](C(=O)N(Cc3ccccc3)Cc3ccccc3)CC[C@@H]12` [Example No. 4, N,N-Dibenzyl-3-oxo-4-aza-5α-androstane-17β-carboxamide]: in the test with rat 5α-reductase, the “Rat 5α-reductase inhibiting activity … (%)” value came out at 74.1%.
`C[C@]12C=CC(=O)N[C@@H]1CC[C@@H]1[C@@H]2CC[C@]2(C)[C@@H](C(=O)NC(Cc3ccccc3)c3ccccc3)CC[C@@H]12` (stereo partly drawn) [Example No. 8, N-(1,2-Diphenylethyl)-3-oxo-4-aza-5α-androst-1-ene-17β-carboxamide]: the “Rat 5α-reductase inhibiting activity … (%)” value in the test on rat 5α-reductase turned out to be 74.6%.
Still for that read-out and setting: in the case of `C[C@]12CC[C@H]3[C@@H](CC=C4NC(=O)CC[C@@]43C)[C@@H]1CC[C@@H]2C(=O)NC(Cc1ccccc1)c1ccccc1` (stereo partly drawn) [Example No. 12, N-(1,2-Diphenylethyl)-3-oxo-4-azaandrost-5-ene-17β-carboxamide] it was 78.4%.
The same measure, in the same setting: in the case of `CN1C(=O)CC[C@]2(C)[C@H]3CC[C@]4(C)[C@@H](C(=O)NC(c5ccccc5)c5ccccc5)CC[C@H]4[C@@H]3CC[C@@H]12` [Example No. 20, N-(Diphenylmethyl)-4-methyl-3-oxo-4-aza-5α-androstane-17β-carboxamide] it was 86.7%.
Same read-out and setting: the figure for `CN1C(=O)CC[C@]2(C)[C@H]3CC[C@]4(C)[C@@H](C(=O)NC(C)(c5ccccc5)c5ccccc5)CC[C@H]4[C@@H]3CC[C@@H]12` [Example No. 26, N-(1,1-Diphenylethyl)-4-methyl-3-oxo-4-aza-5α-androstane-17β-carboxamide] is 87.3%.
Regarding `CC(C)(NC(=O)[C@H]1CC[C@H]2[C@@H]3CC[C@H]4NC(=O)CC[C@]4(C)[C@H]3CC[C@]12C)c1ccccc1` [Example No. 37, N-(1-Methyl-1-phenylethyl)-3-oxo-4-aza-5α-androstane-17β-carboxamide], the “Rat 5α-reductase inhibiting activity … (%)” value in the test on rat 5α-reductase came out at 82.2%.
The same measure, in the same setting: in the case of `CN1C(=O)CC[C@]2(C)[C@H]3CC[C@]4(C)[C@@H](C(=O)NC(C)(C)c5ccccc5)CC[C@H]4[C@@H]3CC[C@@H]12` [Example No. 40, N-(1-Methyl-1-phenylethyl)-4-methyl-3-oxo-4-aza-5α-androstane-17β-carboxamide] it was 88.6%; in that of `CN1C(=O)CC[C@@]2(C)C1=CC[C@H]1[C@@H]3CC[C@H](C(=O)NC(C)(C)c4ccccc4)[C@@]3(C)CC[C@@H]12` [Example No. 42, N-(1-Methyl-1-phenylethyl)-4-methyl-3-oxo-4-aza-androst-5-ene-17β-carboxamide], 72.3%.
The same measure, in the same setting: in the case of `COc1ccc(C(C)(C)NC(=O)[C@H]2CC[C@H]3[C@@H]4CC[C@H]5NC(=O)C=C[C@]5(C)[C@H]4CC[C@]23C)cc1` [Example No. 44, N-[1-(4-Methoxyphenyl)-1-methylethyl]-3-oxo-4-aza-5α-androst-1-ene-17β-carboxamide] it was 73.2%.
On the same count and under the same terms, in the case of `Cc1ccc(C[C@H](NC(=O)[C@H]2CC[C@H]3[C@@H]4CC[C@H]5NC(=O)CC[C@]5(C)[C@H]4CC[C@]23C)c2ccccc2)cc1` [Example No. 62, N-[(S)-2-(4-Methylphenyl)-1-phenylethyl]-3-oxo-4-aza-5α-androstane-17β-carboxamide] it was 90.1%.
Consider `C[C@]12C=CC(=O)N[C@@H]1CC[C@@H]1[C@@H]2CC[C@]2(C)[C@@H](C(=O)NN(c3ccccc3)c3ccccc3)CC[C@@H]12` [Example No. 65, N,N-Diphenyl-3-oxo-4-aza-5α-androst-1-ene-17β-carbohydrazide], for which, in the test with rat 5α-reductase, the “Rat 5α-reductase inhibiting activity … (%)” value stood at 80.0%.
Same read-out and setting: the figure for `C[C@]12C=CC(=O)N[C@@H]1CC[C@@H]1[C@@H]2CC[C@]2(C)[C@@H](C(=O)N[C@H](c3ccccc3)[C@@H](O)c3ccccc3)CC[C@@H]12` [Example No. 73, N-[(1R,2S)-2-Hydroxy-1,2-diphenylethyl]-3-oxo-4-aza-5α-androst-1-ene-17β-carboxamide] is 80.5%.
